pIC50: −log10 of the molar value.
The compounds below were run against Nanoluciferase-BRD9 fusion protein (3×FLAG-NLuc-BRD9) in SYO-1 cells (Homo sapiens (Human), UniProt Q9H8M2) (assay: SYO1 BRD9 NanoLuc degradation assay). Details: SYO-1 cells expressing 3×FLAG-NLuc-BRD9, 6 hours incubation, top dose 1 μM.
Type: cell-based
Description: Procedure: A stable SYO-1 cell line expressing 3×FLAG-NLuc-BRD9 was generated. On day 0 cells were seeded in 30 μL media into each well of 384-well cell culture plates. The seeding density was 8000 cells/well. On day 1, cells were treated with 30 nL DMSO or 30 nL of 3-fold serially DMSO-diluted compounds (10 points in duplicates with 1 μM as final top dose). Subsequently plates were incubated for 6 hours in a standard tissue culture incubator and equilibrated at room temperature for 15 minutes. Nanoluciferase activity was measured by adding 15 μL of freshly prepared Nano-Glo Luciferase Assay Reagent (Promega N1130), shaking the plates for 10 minutes and reading the bioluminescence using an EnVision reader.
Results: The Inhibition % was calculated using the following formula: % Inhibition=100×(LumHC−LumSample)/(LumHC−LumLC). DMSO treated cells are employed as High Control (HC) and 1 μM of a known BRD9 degrader standard treated cells are employed as Low Control (LC).

Chain of Nanoluciferase-BRD9 fusion protein (3×FLAG-NLuc-BRD9) in SYO-1 cells (Q9H8M2 whole entry, the tested form may be a part): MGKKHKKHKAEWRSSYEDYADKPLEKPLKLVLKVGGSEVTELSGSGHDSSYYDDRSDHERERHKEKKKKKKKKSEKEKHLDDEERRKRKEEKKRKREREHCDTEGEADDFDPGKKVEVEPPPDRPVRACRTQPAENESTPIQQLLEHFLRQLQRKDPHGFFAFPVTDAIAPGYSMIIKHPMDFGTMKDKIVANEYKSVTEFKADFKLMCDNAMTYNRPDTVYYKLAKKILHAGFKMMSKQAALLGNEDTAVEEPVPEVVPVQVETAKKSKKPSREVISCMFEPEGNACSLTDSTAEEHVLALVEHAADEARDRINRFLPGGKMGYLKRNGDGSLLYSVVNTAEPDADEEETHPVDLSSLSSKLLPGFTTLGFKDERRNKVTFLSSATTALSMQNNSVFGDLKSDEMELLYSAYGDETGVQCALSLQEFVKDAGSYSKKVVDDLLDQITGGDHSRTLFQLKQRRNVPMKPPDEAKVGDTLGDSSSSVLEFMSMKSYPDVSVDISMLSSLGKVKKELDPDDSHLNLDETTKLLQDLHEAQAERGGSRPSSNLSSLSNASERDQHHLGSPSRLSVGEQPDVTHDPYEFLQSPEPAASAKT

| pIC50 | Structure (SMILES) |
| --- | --- |
| > 8.00 | CNC(=O)N1CCc2c(-c3cc(OC)c(CN4CCC(CCN5CCN(c6ccc7c(c6)C(=O)N(C6CCC(=O)N(COC(=O)OC(C)C)C6=O)C7=O)CC5)CC4)c(OC)c3)cn(C)c(=O)c2C1 (centres unmarked) [Compound D82] |
| > 8.00 | CNC(=O)N1CCc2c(-c3cc(OC)c(CN4CCC(CCN5CCN(c6cc7c(cc6F)CN(C6CCC(=O)NC6=O)C7=O)CC5)CC4)c(OC)c3)cn(C)c(=O)c2C1 (centres unmarked) [Compound D83] |
| > 8.00 | CNC(=O)N1CCc2c(-c3cc(OC)c(CN4CCC(CCN5CCN(c6cc7c(cc6F)C(=O)N(C6CCC(=O)NC6=O)C7)CC5)CC4)c(OC)c3)cn(C)c(=O)c2C1 (centres unmarked) [Compound D84] |
| > 8.00 | COc1cc(-c2cn(C)c(=O)c3c2CCN(C(=O)NC2CC2)C3)cc(OC)c1CN1CCC(CCN2CCN(c3ccc4c(c3)CN(C3CCC(=O)NC3=O)C4=O)CC2)CC1 (centres unmarked) [Compound D85] |
| > 8.00 | CNC(=O)N1CCc2c(-c3cc(OC)c(CN4CCC(CCN5CCN(c6cc(F)c7c(c6)C(=O)N(C6CCC(=O)NC6=O)C7=O)CC5)CC4)c(OC)c3)cn(C)c(=O)c2C1 (centres unmarked) [Compound D86] |
| > 8.00 | CNC(=O)N1CCc2c(-c3cc(OC)c(CN4CCC(CCN5CCN(c6ccc7c(c6F)C(=O)N(C6CCC(=O)NC6=O)C7=O)CC5)CC4)c(OC)c3)cn(C)c(=O)c2C1 (centres unmarked) [Compound D87] |
| > 8.00 | CNC(=O)N1CCc2c(-c3cc(OC)c(CN4CCC(CCN5CCN(c6cc7c(cc6F)C(=O)N(C6CCC(=O)NC6=O)C7=O)CC5)CC4)c(OC)c3)cn(C)c(=O)c2C1 (centres unmarked) [Compound D88] |
| > 8.00 | COc1cc(-c2cn(C)c(=O)c3c2CCN(C(=O)NCCCCCCCCNc2cccc4c2CN(C2CCC(=O)NC2=O)C4=O)C3)cc(OC)c1CN1CCC1 (centres unmarked) [Compound D89] |
| 7.00 to 8.00 | COc1cc(-c2cn(C)c(=O)c3c2CCN(C(=O)NCCCCCOc2cccc4c2C(=O)N(C2CCC(=O)NC2=O)C4=O)C3)cc(OC)c1CN1CCC1 (centres unmarked) [Compound D90] |
| > 8.00 | CNC(=O)N1CCc2c(-c3cc(F)c(CN4CCC(CCN5CCN(c6ccc7c(c6)C(=O)N(C6CCC(=O)NC6=O)C7=O)CC5)CC4)c(OC)c3)cn(C)c(=O)c2C1 (centres unmarked) [Compound D91] |
| 7.00 to 8.00 | CNC(=O)N1CCc2c(-c3cnc(CN4CCC(CCN5CCN(c6ccc7c(c6)C(=O)N(C6CCC(=O)NC6=O)C7=O)CC5)CC4)c(OC)c3)cn(C)c(=O)c2C1 (centres unmarked) [Compound D92] |
| > 8.00 | CNC(=O)N1CCc2c(-c3cc(OC)c(CN4CCN(CCC5CCN(c6ccc7c(c6)C(=O)N(C6CCC(=O)NC6=O)C7=O)CC5)C(C#N)C4)c(OC)c3)cn(C)c(=O)c2C1 (centres unmarked) [Compound D93] |
| > 8.00 | CNC(=O)N1CCc2c(-c3cc(OC)c(CN4CCN(CCC5CCN(c6ccc7c(c6)C(=O)N(C6CCC(=O)NC6=O)C7=O)CC5)C5(CCC5)C4)c(OC)c3)cn(C)c(=O)c2C1 (centres unmarked) [Compound D95] |
| > 8.00 | CNC(=O)N1CCc2c(-c3cc(OC)c(CN4CCN(CCC5CCN(c6ccc7c(c6)C(=O)N(C6CCC(=O)NC6=O)C7=O)CC5)C5CC54)c(OC)c3)cn(C)c(=O)c2C1 (centres unmarked) [Compound D96] |
| > 8.00 | CNC(=O)N1CCc2c(-c3cc(OC)c(CN4CCN(CCC5CCN(c6ccc7c(c6)C(=O)N(C6CCC(=O)NC6=O)C7=O)CC5)CC45COC5)c(OC)c3)cn(C)c(=O)c2C1 (centres unmarked) [Compound D98] |
| > 8.00 | CNC(=O)N1CCc2c(-c3cc(OC)c(CN4CCN(CCC5CCN(c6ccc7c(c6)C(=O)N(C6CCC(=O)NC6=O)C7=O)CC5)CC4C)c(OC)c3)cn(C)c(=O)c2C1 (centres unmarked) [Compound D99] |
| > 8.00 | CNC(=O)N1CCc2c(-c3cc(OC)c(CN4CCN(CCC5CCN(c6ccc7c(c6)C(=O)N(C6CCC(=O)NC6=O)C7=O)CC5)C(C)C4)c(OC)c3)cn(C)c(=O)c2C1 (centres unmarked) [Compound D100] |
| > 8.00 | CNC(=O)N1CCc2c(-c3cc(OC)c(CN4CCN(CCC5CCN(c6ccc7c(c6)C(=O)N(C6CCC(=O)NC6=O)C7=O)CC5)CC4(C)C)c(OC)c3)cn(C)c(=O)c2C1 (centres unmarked) [Compound D102] |
| > 8.00 | CNC(=O)N1CCc2c(-c3cc(OC)c(CN4CCN(CCC5CCN(c6ccc7c(c6)C(=O)N(C6CCC(=O)NC6=O)C7=O)CC5)C(COC)C4)c(OC)c3)cn(C)c(=O)c2C1 (centres unmarked) [Compound D103] |
| > 8.00 | CNC(=O)N1CCc2c(-c3cc(OC)c(CN4CCN(CCC5CCN(c6ccc7c(c6)C(=O)N(C6CCC(=O)NC6=O)C7=O)CC5)CC4C(F)F)c(OC)c3)cn(C)c(=O)c2C1 (centres unmarked) [Compound D104] |
| > 8.00 | [2H]C1([2H])N(CCC2CCN(c3ccc4c(c3)C(=O)N(C3CCC(=O)NC3=O)C4=O)CC2)C([2H])([2H])C([2H])([2H])N(Cc2c(OC)cc(-c3cn(C)c(=O)c4c3CCN(C(=O)NC)C4)cc2OC)C1([2H])[2H] (centres unmarked) [Compound D105] |
| > 8.00 | CNC(=O)N1CCc2c(-c3cc(OC)c(C(C)N4CCC(CN5CCC6(CC5)CC(Oc5ccc7c(c5)C(=O)N(C5CCC(=O)NC5=O)C7=O)C6)CC4)c(OC)c3)cn(C)c(=O)c2C1 (centres unmarked) [Compound D106] |

| pIC50 | Structure (SMILES) |
| --- | --- |
| > 8.00 | CNC(=O)N1CCc2c(-c3cc(OC)c(CN4CC(C(C)N5CCC6(CC5)CN(c5ccc7c(c5)C(=O)N(C5CCC(=O)NC5=O)C7=O)C6)C4)c(OC)c3)cn(C)c(=O)c2C1 (centres unmarked) [Compound D107] |
| > 8.00 | CNC(=O)N1CCc2c(-c3cc(OC)c(CN4CC(CN5CCC6(CC5)CN(c5ccc7c(c5)C(=O)N(C5CCC(=O)NC5=O)C7=O)C6)C4)c(OC)c3)cn(C)c(=O)c2C1 (centres unmarked) [Compound D109] |
| > 8.00 | COc1cc(-c2cn(C)c(=O)c3c2CCN(C(=O)NCC2CC4(CCN(c5ccc6c(c5)C(=O)N(C5CCC(=O)NC5=O)C6=O)CC4)C2)C3)cc(OC)c1CN(C)C (centres unmarked) [Compound D110] |
| 7.00 to 8.00 | CNC(=O)N1CCc2c(-c3cc(OC)c(CNc4ccc5c(c4)C(=O)N(C4CCC(=O)NC4=O)C5=O)c(OC)c3)cn(C)c(=O)c2C1 (centres unmarked) [Compound D111] |
| > 8.00 | CNC(=O)N1CCc2c(-c3cc(OC)c(CN(C)c4ccc5c(c4)C(=O)N(C4CCC(=O)NC4=O)C5=O)c(OC)c3)cn(C)c(=O)c2C1 (centres unmarked) [Compound D112] |
| > 8.00 | CNC(=O)N1CCc2c(-c3cc(OC)c(CN4CCC(CCN5CCC(c6ccc7c(c6)C(=O)N(C6CCC(=O)NC6=O)C7=O)CC5)CC4)c(OC)c3)cn(C)c(=O)c2C1 (centres unmarked) [Compound D113] |
| > 8.00 | CNC(=O)N1CCc2c(-c3cc(OC)c(CN4CCC(C(C)(C)N5CCC6(CC5)CC(Oc5ccc7c(c5)C(=O)N(C5CCC(=O)NC5=O)C7=O)C6)CC4)c(OC)c3)cn(C)c(=O)c2C1 (centres unmarked) [Compound D114] |
| > 8.00 | COc1cc(-c2cn(C)c(=O)c3c2CCN(C(=O)NCC2CC4(C2)CN(c2ccc5c(c2)C(=O)N(C2CCC(=O)NC2=O)C5=O)C4)C3)cc(OC)c1CN(C)C (centres unmarked) [Compound D115] |
| > 8.00 | CNC(=O)N1CCc2c(-c3cc(OC)c(CN4CC(Oc5ccc6c(c5)C(=O)N(C5CCC(=O)NC5=O)C6=O)C4)c(OC)c3)cn(C)c(=O)c2C1 (centres unmarked) [Compound D116] |
| > 8.00 | CNC(=O)N1CCc2c(-c3cc(OC)c(CN4CCN(CCN5CCC(c6ccc7c(c6)C(=O)N(C6CCC(=O)NC6=O)C7=O)CC5)CC4)c(OC)c3)cn(C)c(=O)c2C1 (centres unmarked) [Compound D117] |
| > 8.00 | CNC(=O)N1CCc2c(-c3cc(OC)c(CN4CCC(CCN5CCN(c6ccc7c(c6)C(=O)N(C6CCC(=O)NC6=O)C7=O)CC5)CC4)c(OC)c3)cn(C3CC3)c(=O)c2C1 (centres unmarked) [Compound D118] |
| > 8.00 | COc1cc(-c2cn(C)c(=O)c3c2CCN(C(=O)NC2CCC4CN(c5ccc6c(c5)C(=O)N(C5CCC(=O)NC5=O)C6=O)CC42)C3)cc(OC)c1CN(C)C (centres unmarked) [Compound D119] |
| 6.00 to 7.00 | COc1cc(-c2cn(C)c(=O)c3c2CCN(C(=O)NCC2CCC4(CCN(c5ccc6c(c5)C(=O)N(C5CCC(=O)NC5=O)C6=O)CC4)O2)C3)cc(OC)c1CN(C)C (centres unmarked) [Compound D120] |
| > 8.00 | COc1cc(-c2cn(C)c(=O)c3c2CCN(C(=O)NCC2COC4(CCN(c5ccc6c(c5)C(=O)N(C5CCC(=O)NC5=O)C6=O)CC4)C2)C3)cc(OC)c1CN(C)C (centres unmarked) [Compound D121] |
| 7.00 to 8.00 | COc1cc(-c2cn(C)c(=O)c3c2CCN(C(=O)NCC2CC4CN(c5ccc6c(c5)C(=O)N([C@H]5CCC(=O)NC5=O)C6=O)CC4C2)C3)cc(OC)c1CN(C)C (some centres unmarked) [Compound D122] |
| > 8.00 | COc1cc(-c2cn(C)c(=O)c3c2CCN(C(=O)NCC2CC4CN(c5ccc6c(c5)C(=O)N([C@@H]5CCC(=O)NC5=O)C6=O)CC4C2)C3)cc(OC)c1CN(C)C (some centres unmarked) [Compound D123] |
| > 8.00 | CNC(=O)N1CCc2c(-c3cc(OC)c(CN4CC(C(C)(C)N5CCC6(CC5)CN(c5ccc7c(c5)C(=O)N(C5CCC(=O)NC5=O)C7=O)C6)C4)c(OC)c3)cn(C)c(=O)c2C1 (centres unmarked) [Compound D124] |
| > 8.00 | CNC(=O)N1CCc2c(-c3cc(OC)c(CN4CCC(CN(C(C)C)C5CC(Oc6ccc7c(c6)C(=O)N(C6CCC(=O)NC6=O)C7=O)C5)CC4)c(OC)c3)cn(C)c(=O)c2C1 (centres unmarked) [Compound D125] |
| 6.00 to 7.00 | CNC(=O)N1CCc2c(-c3cc(OC)c(CN4CC5(CCN(C(C)(C)C#Cc6ccc7c(c6)C(=O)N(C6CCC(=O)NC6=O)C7=O)CC5)C4)c(OC)c3)cn(C)c(=O)c2C1 (centres unmarked) [Compound D126] |
| > 8.00 | CNC(=O)N1CCc2c(-c3cc(OC)c(CN4CCC(=CCN5CCN(c6ccc7c(c6)C(=O)N(C6CCC(=O)NC6=O)C7=O)CC5)CC4)c(OC)c3)cn(C)c(=O)c2C1 (centres unmarked) [Compound D127] |
| > 8.00 | CNC(=O)N1CCc2c(-c3cc(OC)c(CN4CCC(C(C)N5CCC6(CC5)CC(Oc5ccc7c(c5)C(=O)N(C5CCC(=O)NC5=O)C7=O)C6)CC4)c(OC)c3)cn(C)c(=O)c2C1 (centres unmarked) [Compound D128] |
| 7.00 to 8.00 | CNC(=O)N1CCc2c(-c3cc(OC)c(CN4CC5CC4CC5CN4CCN(c5ccc6c(c5)C(=O)N(C5CCC(=O)NC5=O)C6=O)CC4)c(OC)c3)cn(C)c(=O)c2C1 (centres unmarked) [Compound D129] |

Source: US12384776B2, “Compounds and uses thereof” (Foghorn Therapeutics Inc., priority 2019, dated 2025)
